Experimental data reported in ChEMBL document CHEMBL3832028, “DailyMed|setid=372af566-d6ec-446f-88db-0b4cc83b577f | GLYBURIDE AND METTFORMIN HYDROCHLORIDE - glyburide and hydrochloride tablet, film coated| Citron Pharma LLC”.

Assay: Tmax for Glyburide following single oral co-administration of 5 mg glyburide and 500 mg metformin hydrochloride to feeding subjects.
Type: ADME, organism-based
Details: human, in vivo, dietary status Fed, dosed compound id 13, dosed compound name GLYBURIDE, regimen Single dose, tissue Plasma

- Tmax: 2.75 h
SMILES: COc1ccc(Cl)cc1C(=O)NCCc1ccc(S(=O)(=O)NC(=O)NC2CCCCC2)cc1 [GLYBURIDE]
